The test system of test [1] is Influenza A/Panama/2007/99. The test is classed as cell-based. Particulars: for Effect of TRP channel antagonist on 8×Ca:Na formulation-mediated reduction of influenza infection: Calu-3 cells pretreated with antagonist (RR 1 μM, SKF96365 10 μM, RN1734 1-100 μM), then 8×Ca:Na formulation.
The subject of test [2] is Influenza A/Panama/2007/99. The test is described as follows: Influenza infection of normal human bronchial epithelial (NHBE) cells, viral titer by TCID50. Particulars: for Effect of TRPV4 agonist on influenza replication in NHBE cells: agonist 1 μM one hour prior to infection and reapplied 3 h after, compared to PBS control. Type of test: cell-based, Influenza A (H3N2).
The test system of the next test is rhinovirus (RV16). Type of test: cell-based, human rhinovirus.
Another test has as its system parainfluenza (hPIV3). Type of test: cell-based, human parainfluenza virus.
Where [3] appears, read: Calu-3 cells, treatment alone, compared to untreated control.
[4] abbreviates: reduction of influenza infection, TCID50 24 h after infection.
The mark [5] stands for this setting: reduction of influenza infection, agonist applied apically 1 h before and again 3 h after infection, titer 24 h after infection.
[6] abbreviates: Calu-3 cells pretreated with ruthenium red 1 μM, then 8×Ca:Na formulation.

Read-outs that look alike come from different tables or passages of the source.

Data on twelve molecules can be found in patent US20130203715A1, “USE OF TRP CHANNEL AGONISTS TO TREAT INFECTIONS” (Pulmatrix, Inc., priority 2010, published 2013).

Regarding `O=[N+]([O-])c1cc(Cl)ccc1S(=O)(=O)N1CCN(Cc2ccccc2)CC1` [RN1747], in test [1], the Active concentrations is -8 to -4 M and the “Max reduction in titer (Log10)” value is recorded as 2.3 Log10. Moreover, the “Effect on influenza infection (viral titer) of Calu-3 cells” value (“Effect on influenza infection” for short) in test [1] (setting [3]) is given as “reduces influenza infection in a dose-dependent manner”.

Take `COc1cc(CNC(=O)CCCC/C=C/C(C)C)ccc1O` [Capsacin]: in test [1], the Active concentrations is -8 to -4 M and the “Max reduction in titer (Log10)” value came to 2.2 Log10.

Consider `O=C1NC(c2cccc([N+](=O)[O-])c2)=CCN1c1ccccc1O` [Icilin], for which, in test [1] (setting [3]), the “Effect on influenza infection” value was “small, but measurable reduction of influenza titer”. The “Max reduction in titer (Log10)” value in test [1] (setting [4]) was determined as 1 Log10. This molecule also displayed an Active concentrations in test [1] (setting [5]) of -6 to -4 M.

Regarding `CCCCCCCCCC(=O)O[C@@H]1[C@@H](C)[C@@]2(O)[C@@H](C=C(CO)C[C@@]3(O)C(=O)C(C)=C[C@@H]23)[C@@H]2C(C)(C)[C@]12OC(=O)CCCCCCCCC` [4αPDD, 4α-Phorbol 12,13-didecanoate], the “Effect of TRPV4 agonist on influenza replication in NHBE cells” value in test [2] is reported as “reduced influenza replication”. Also, in test [1], the Active concentrations was -9 to -5 M, the “Effect on influenza infection” value is listed as “reduces influenza infection” and the “Max reduction in titer (Log10)” value worked out at 2.9 Log10. For the same molecule, the “Effect on rhinovirus infection of Calu-3 cells” value with rhinovirus (RV16) (Calu-3 cells, RV16, compared to untreated control) was “able to reduce”. The “Effect on parainfluenza infection of Calu-3 cells” value with parainfluenza (hPIV3) (Calu-3 cells, hPIV3, compared to untreated control) is given as “able to reduce”.

In the case of `COc1ccc(CCCOC(Cn2ccnc2)c2ccc(OC)cc2)cc1` (centres unmarked) [SKF96365], the “Effect of TRP channel antagonist on 8×Ca:Na formulation-mediated reduction of influenza infection” value in test [1] was “the effect on viral infection was reduced to levels comparable to the untreated control cells”.

As to `CC(C)C[C@H](NC(=O)c1cc2ccccc2s1)C(=O)N1CCN(C(=O)[C@H](CO)NS(=O)(=O)c2ccc(Cl)cc2Cl)CC1` [GSK1016790A], in test [2], the “Effect of TRPV4 agonist on influenza replication in NHBE cells” value is “reduced influenza replication”. In test [1], the Active concentrations is -11 to -6 M and the “Max reduction in titer (Log10)” value is given as 5.0 Log10. Besides, the “Effect on influenza infection” value in test [1] (setting [3]) is given as “reduces influenza infection in a dose-dependent manner”. Besides, the “Effect on influenza infection” value in test [1] (Calu-3 cells, treatment alone, compared to untreated control, listed as GSK10168790) was “the highest level of anti-viral efficacy in a dose-dependent manner”.

As for `CC1CCC(C(C)C)C(O)C1` (centres unmarked) [Menthol], the “Effect on influenza infection” value in test [1] (setting [3]) is listed as “reduced influenza titer in a dose responsive manner”. In test [1] (setting [4]), the “Max reduction in titer (Log10)” value was 2.5 Log10. Moreover, the Active concentrations in test [1] (setting [5]) is -7 to -4 M.

Take `C=C(C)[C@]12C[C@@H](C)[C@@]34O[C@](Cc5ccccc5)(O[C@@H]1[C@@H]3C=C(COC(=O)Cc1ccc(O)c(OC)c1)C[C@]1(O)C(=O)C(C)=C[C@@H]41)O2` [Resiniferatoxin]: in test [1], the Active concentrations is -6 to -4 M and the “Max reduction in titer (Log10)” value amounted to 3.3 Log10.

For `Cc1ccc(C(C)C)cc1O` [Carvacrol], in test [1], the Active concentrations is listed as −6.5 to −4M^ and the “Max reduction in titer (Log10)” value came out at 3 Log10. In test [1] (setting [3]), the “Effect on influenza infection” value is “reduced influenza titer in a dose responsive manner”.

For `N.N.N.N.N.N.N.N.N.N.N.N.N.N.[Cl-].[Cl-].[Cl-].[Cl-].[Cl-].[Cl-].[O-2].[O-2].[Ru+3].[Ru+3].[Ru+4]` [Ruthenium Red], the “Effect of antagonist on 8×Ca:Na formulation anti-viral action in NHBE cells” value in test [2] (ruthenium red 1 μM before 8×Ca:Na formulation) is given as “blocked the anti-viral action of the Ca:Na formulation”. The “Effect of antagonist on Formulation I reduction of influenza viral titer” value in test [1] (Calu-3 cells pre-treated with ruthenium red 1 μM, then dry powder Formulation I) is recorded as “attenuated”. Moreover, in test [1] (Calu-3 cells pre-treated with ruthenium red 1 μM, then dry powder Formulation II), the “Effect of antagonist on Formulation II reduction of influenza infection” value was “attenuated”. The “Effect of TRP channel antagonist on 8×Ca:Na formulation-mediated reduction of influenza infection” value in test [1] is “the effect on viral infection was reduced to levels comparable to the untreated control cells”. Also, the “Effect of antagonist on 8×Ca:Na formulation efficacy against rhinovirus” value in the test on rhinovirus (RV16) (setting [6]) was “the efficacy of the 8× treatment was reduced”. For the same molecule, the “Effect of antagonist on 8×Ca:Na formulation efficacy against parainfluenza” value in the test on parainfluenza (hPIV3) (setting [6]) is “the efficacy of the 8× treatment was reduced”.

As to `O=C(O)c1ccccc1Nc1cccc(C(F)(F)F)c1` [Flufenamic acid], the “Effect on influenza infection” value in test [1] (setting [3]) is reported as “reduced influenza titer in a dose responsive manner”. Further, the “Max reduction in titer (Log10)” value in test [1] (setting [4]) was determined as 2.5 Log10. In test [1] (setting [5]), this molecule yielded an Active concentrations of -6 to -4 M.

In the case of `CC(C)NCCN(C(C)C)S(=O)(=O)c1ccc(Cl)cc1Cl` [RN1734], the “Effect of TRP channel antagonist on 8×Ca:Na formulation-mediated reduction of influenza infection” value in test [1] is “inhibited the 8×Ca:Na formulation-mediated reduction of influenza infection in a dose dependent manner”.
